Measured values from ChEMBL document CHEMBL1155335, “Studies towards topical selective beta2-adrenoceptor agonists with a long duration of action” (Bioorg Med Chem Lett, 2009).
pEC50: −log10 of the molar value. Calls of active or inactive are those of the source. No cut-off for these calls is given here.

What was measured:
[1] = target: Beta-1 adrenergic receptor (Homo sapiens, UniProt P08588)
Description: Agonist activity at human beta-1 adrenoceptor expressed in CHOK1 cell assessed as increase of intracellular cAMP level

[2] = target: Beta-2 adrenergic receptor (Homo sapiens, UniProt P07550)
Description: Agonist activity at human beta2 adrenoceptor expressed in CHOK1 cell assessed as increase of intracellular cAMP level

Homo sapiens = species on record: Homo sapiens; assay: Selectivity ratio, EC50 for human beta-1 adrenoceptor to EC50 for human beta2 adrenoceptor
Cavia porcellus [3] = assay: Bronchoprotective activity in guinea pig assessed as inhibition of acetylcholine-induced increase in pulmonary resistance at 10 ug/kg, intratracheally after 5 hrs; assay type: functional; parameters: scale not given: the % may be the effect or the level left
Cavia porcellus [4] = assay: Toxicity in intratracheally dosed guinea pig assessed as increase in heart rate after 10 to 20 mins; assay type: organism-based; conditions: in vivo, inhaled_or_intranasal
Cavia porcellus [5] = assay: Toxicity in guinea pig assessed as increase in heart rate at 10 ug/kg, intratracheally after 90 mins; assay type: organism-based; conditions: in vivo, inhaled_or_intranasal, 0.01 mg/kg, 1.5 h
Cavia porcellus [6] = assay: Bronchoprotective activity in intratracheally dosed guinea pig assessed as inhibition of acetylcholine-induced increase in pulmonary resistance after 5 hrs; assay type: functional, organism-based
Cavia porcellus [7] = assay: Bronchoprotective activity in guinea pig assessed as inhibition of acetylcholine-induced increase in pulmonary resistance at 3 ug/kg, intratracheally after 5 hrs; assay type: functional, organism-based
Cavia porcellus [8] = assay: Toxicity in guinea pig assessed as increase in heart rate at 3 ug/kg, intratracheally after 90 mins; assay type: organism-based; conditions: in vivo, inhaled_or_intranasal, 0.003 mg/kg, 1.5 h

Sequence of Beta-2 adrenergic receptor (P07550 whole entry): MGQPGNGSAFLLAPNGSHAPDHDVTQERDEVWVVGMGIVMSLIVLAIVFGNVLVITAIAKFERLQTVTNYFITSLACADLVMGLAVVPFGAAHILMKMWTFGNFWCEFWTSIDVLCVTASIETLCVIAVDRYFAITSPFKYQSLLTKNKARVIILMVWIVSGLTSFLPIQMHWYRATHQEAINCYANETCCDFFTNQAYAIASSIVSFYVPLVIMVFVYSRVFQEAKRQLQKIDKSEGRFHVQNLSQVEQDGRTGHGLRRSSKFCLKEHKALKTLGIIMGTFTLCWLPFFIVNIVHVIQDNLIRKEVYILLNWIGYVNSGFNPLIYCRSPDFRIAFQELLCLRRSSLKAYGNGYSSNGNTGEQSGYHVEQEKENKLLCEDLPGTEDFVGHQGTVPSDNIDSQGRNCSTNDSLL
Sequence of Beta-1 adrenergic receptor (P08588 whole entry): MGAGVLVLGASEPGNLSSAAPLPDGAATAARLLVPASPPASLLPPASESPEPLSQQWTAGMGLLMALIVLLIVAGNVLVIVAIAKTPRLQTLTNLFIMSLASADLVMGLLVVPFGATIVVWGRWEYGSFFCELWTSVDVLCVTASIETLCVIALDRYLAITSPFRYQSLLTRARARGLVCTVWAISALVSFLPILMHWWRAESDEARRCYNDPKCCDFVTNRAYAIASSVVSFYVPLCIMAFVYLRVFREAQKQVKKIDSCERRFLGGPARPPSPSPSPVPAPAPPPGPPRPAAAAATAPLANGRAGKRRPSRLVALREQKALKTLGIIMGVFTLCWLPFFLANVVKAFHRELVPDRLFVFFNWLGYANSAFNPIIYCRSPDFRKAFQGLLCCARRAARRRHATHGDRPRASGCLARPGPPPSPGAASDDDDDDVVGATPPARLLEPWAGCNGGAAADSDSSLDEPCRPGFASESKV

pEC50 [1]	pEC50 [2]	Ratio EC50 (Homo sapiens)	Compound	Activity (Cavia porcellus [3]) [%]	Activity (Cavia porcellus [4])	Activity (Cavia porcellus [5]) [%]	Activity (Cavia porcellus [6])	Activity (Cavia porcellus [7])	Activity (Cavia porcellus [8])
8.47	8.96	3.1	CC(C)(Cc1ccc(NC(=O)CCCN)cc1)NCC(O)c1ccc(O)c2c1OCC(=O)N2 (centres undefined)	–	–	–	–	–	–
8.74	9.00	1.8	CC(C)(Cc1ccc(NC(=O)CCCNC(=N)N)cc1)NCC(O)c1ccc(O)c2c1OCC(=O)N2 (centres undefined)	100	Toxic	> 10	Dose-dependent effect	Active	–
–	–	4.4	CC(C)(Cc1ccc(NC(=O)CCCNC(=N)N)cc1)NCC(O)c1cc(O)cc2c1OCC(=O)N2 (centres undefined)	–	–	–	–	–	–
8.35	8.92	3.8	CC(C)(Cc1ccc(NC(=O)CCCNC(=O)CN)cc1)NCC(O)c1ccc(O)c2c1OCC(=O)N2 (centres undefined)	100	Toxic	> 10	Dose-dependent effect	Active	–
7.96	8.05	1.2	CC(C)(Cc1ccc(NC(=O)CCCN)cc1)NCC(O)c1cc(O)cc2c1OCC(=O)N2 (centres undefined)	–	–	–	–	–	–
7.55	7.94	2.4	CC(C)(Cc1ccc(NC(=O)CCCNC(=O)C[N+](C)(C)C)cc1)NCC(O)c1cc(O)cc2c1OCC(=O)N2 (centres undefined)	–	–	–	–	–	–
8.46	9.00	3.5	CC(C)(Cc1ccc(NC(=O)CCCNC(=O)C[N+](C)(C)C)cc1)NCC(O)c1ccc(O)c2c1OCC(=O)N2 (centres undefined)	–	–	–	–	–	–
7.62	8.27	4.4	CC(C)(Cc1ccc(NC(=O)CCCNC(=O)C(N)CCCN)cc1)NCC(O)c1ccc(O)c2c1OCC(=O)N2 (centres undefined)	100	Toxic	> 10	Dose-dependent effect	Active	–
8.00	8.74	5.5	CC(C)(Cc1ccc(NC(=O)CCCNCCCS(=O)(=O)O)cc1)NCC(O)c1ccc(O)c2c1OCC(=O)N2 (centres undefined)	–	Toxic	–	Dose-dependent effect	–	Active
8.28	9.30	10.6	CN(C)CC(=O)NCCCC(=O)Nc1ccc(CC(C)(C)NCC(O)c2ccc(O)c3c2OCC(=O)N3)cc1 (centres undefined)	–	–	–	–	–	–
7.74	8.39	–	CC(C)(Cc1ccc(NC(=O)CCCN=C(N)N)cc1)NCC(O)c1cc(O)cc2c1OCC(=O)N2 (centres undefined)	–	–	–	–	–	–
8.34	9.05	5.1	CC(C)(Cc1ccc(NC(=O)CCCNC(=O)CCN)cc1)NCC(O)c1ccc(O)c2c1OCC(=O)N2 (centres undefined)	–	–	–	–	–	–

Compound	pEC50 [1]	pEC50 [2]	Ratio EC50 (Homo sapiens)	Activity (Cavia porcellus [3]) [%]	Activity (Cavia porcellus [4])	Activity (Cavia porcellus [5]) [%]	Activity (Cavia porcellus [6])	Activity (Cavia porcellus [7])	Activity (Cavia porcellus [8])
CN1CCN(CC(=O)NCCCC(=O)Nc2ccc(CC(C)(C)NCC(O)c3ccc(O)c4c3OCC(=O)N4)cc2)CC1 (centres undefined)	8.24	8.92	4.8	–	–	–	–	–	–
